The subject of series [1] is rats. To be noted: cited from earlier work.
Series [2] is described as follows: Serum insulin levels (radio immune assay) in diabetic rabbits. To be noted: intravenous injection, 0.3 and 0.4 U/kg insulin, diabetic rabbits (FIG. 2).
Method: The animals used in this study were Male New Zealand White rabbits weighing approximately 2.5 kg. (Charles River Labs, Amherst, Mass.). The animals were housed individually in cages and given standard animal chow and water. All animals were treated according to the Guiding Principles for Laboratory Animal Care of the American Physiologic Society.
The animals were made diabetic by intravenously injecting 80 mg/kg of Alloxan suspended in isotonic saline solution into the animal. The animals' blood glucose levels were monitored every two to three hours for the first three days. When glucose levels reached 500 mg/dl during the first three days, insulin (0.15 U/kg) was administered.
Prior to the experiment, the animals were fasted for 16 hours. The animals were then anesthetized by intravenously administering 30 mg/kg sodium pentobarbital. Forty minutes following the initial dose of pentobarbital, a second dose (6 mg/kg) was administered to the animals. […]
The animals were placed into groups of 3 to 7 animals for each experiment. […] Blood glucose levels and serum insulin levels were measured for each experiment. […]
Following the blood glucose analysis, serum samples were obtained by centrifuging the blood samples collected at 3000 rpm for 10 minutes. […] Serum insulin levels were determined using radio immune assay kits. […]
The subject of series [3] is diabetic rabbits. Description: Blood glucose levels in alloxan-diabetic rabbits after intravenous or intranasal insulin. The series is classed as in vivo, Male New Zealand White rabbits. To be noted: intravenous injection, 0.3 and 0.4 U/kg insulin, -30 to 300 minutes (FIG. 1).

Read-outs that look alike come from different tables or passages of the source.

insulin: the “increase in concentration of insulin required intranasally to reach plasma glucose levels similar to parenteral administration” value in series [1] (intranasal vs parenteral) is recorded as 10 fold. Also, the plasma glucose levels entry in series [1] (intravenous administration) is “decreased significantly”; in series [1] (oral administration), “only slightly decreased”. Moreover, the serum insulin levels result in series [2] is “serum insulin levels increased as the blood glucose levels fell”. Further, the blood glucose levels entry in series [3] is listed as “showed a fall in blood glucose levels”.
